# Results taken from patent US9273043B2, “TRPV1 antagonists including dihydroxy substituent and uses thereof” (Purdue Pharma L.P., priority 2011, dated 2016).
# Experiments:
# [1] = biological target: T1, human TRPV1 (Homo sapiens (Human), UniProt Q8NER1); assay: pH-based assay, Protocol 2, TRPV1/CHO cells (hpH-CHO), Fura-2 Ca2+ influx; assay type: cell-based; details: pH 5.0-5.1 (H2SO4), mean ± SEM
# Procedure: For Protocol 2, a Chinese Hamster Ovary cell line (CHO) that has been engineered to constitutively express human recombinant TRPV1 was used (TRPV1/CHO cells). The TRPV1/CHO cell line was generated as described below.
# TRPV1/CHO cells were seeded in the 96-well clear-bottom black-wall plate (Nunc) at densities of 1-2×10^4 cells/well and grown in 100 μL of culture medium (alpha-MEM supplemented with 10% FBS, 20 mM HEPES, 1 mg/mL geneticin and 1% antibiotic-antimycotic mixed stock solution) for 1-2 days before the experiment.
# (1) Culture medium was removed using an 8-channel-pipette (Rainin, USA) from the 96-well plate and the wells were refilled with 100 μL of loading buffer (20 mM HEPES, 115 mM NaCl, 5.4 mM KCl, 0.8 mM MgCl2, 1.8 mM CaCl2, 13.8 mM D-glucose, 2.5 mM probenecid, pH 7.4) containing 5 μM Fura-2 AM (Dojin, Japan).
# (2) The 96-well plate was incubated at 37° C. for 45 min.
# (3) The loading buffer was removed from each well. The cells were subsequently washed twice with 150 μL of measuring buffer (20 mM HEPES, 115 mM NaCl, 5.4 mM KCl, 0.8 mM MgCl2, 5.0 mM CaCl2, 13.8 mM D-glucose, 0.1% BSA, pH 7.4) (no probenecid). The wells were then refilled with 80 μL of measuring buffer.
# (4) After an incubation at 4° C. for 15 min, the 96-well plate was transferred to a model FDSS-3000 plate reader apparatus (Hamamatsu Photonics K.K., Japan).
# (5) The Fura-2 fluorescent intensity was monitored at a wavelength of 340 nm and at 380 nm, respectively, at a rate of 0.5 Hz for a total of 240 seconds. After 16 time points (32 sec) of baseline detection, 20 μL of agonist solution was added to each well. The final volume was 100 μL/well.
# (6) Fluorescence intensity ratio refers to the fluorescence intensity at 340 nm over the fluorescence intensity at 380 nm at a particular time point. The baseline was set as the average of the fluorescent intensity ratios for the first 16 time points before the addition of agonist solution. The maximum response was the highest fluorescent intensity ratio during the 60 time points following addition of agonist solution.
# (7) Maximal signal ratios from each well were calculated as output data using the FDSS-3000 analysis program. Data were analyzed using Excel (Microsoft) and XLfit (idbs) software.
# In an “agonist plate,” two different agonist solutions with different H2SO4 concentrations were used for the pH assay (see, e.g., FIG. 3A of U.S. Patent Application Publication No. US 2009/0170868 A1). For the first half of a 96-well plate one agonist solution was used; for the second half the other agonist solution was used. The agonist solutions were obtained by diluting sulfuric acid (1M H2SO4) with measuring buffer. The concentrations for the two agonist solutions were determined as described above in Section 2 of Protocol 2.
# The sulfuric acid concentrations between the two agonist solutions differed by 0.5 mM. In the experiment described in Section 2 of Protocol 2, the sulfuric acid concentrations in the agonist solutions were determined to be 16 mM and 16.5 mM, respectively. After 1:4 dilution of the agonist solutions, the final sulfuric acid concentration was 3.2 mM and 3.3 mM, respectively. The resulting pH value for the pH assay was 5.0 to 5.1.
# Test compounds were dissolved in DMSO to yield 1 mM stock solutions. The stock solutions were further diluted using DMSO in […] serial dilution steps with 6 points (1000, 250, 62.5, 15.625, 3.9062, and 0.977 μM). The thereby-obtained solutions were further diluted in measuring buffer (1:100) as 10× stock serial dilutions with a DMSO concentration of 1%. 10 μL of a 10× stock was added into each well of an “antagonist plate” (see step 3.3.(4) below). Thus, the final concentrations of antagonists was as follows: 0.977, 3.906, 15.63, 62.5, 250, and 1000 nM containing 0.1% DMSO (see, e.g., FIG. 3B of U.S. Patent Application Publication No. US 2009/0170868 A1).
# Steps (1) and (2) of this Assay were the same as steps 2.2.(1) and 2.2.(2), respectively, of Protocol 2. […]
# [2] = biological target: T1, human TRPV1; assay: Capsaicin-based assay, Protocol 2, TRPV1/CHO cells (hCAP-CHO), Fluo-4 FLIPR; assay type: cell-based; details: 100 nM capsaicin, mean ± SEM
# Excerpt: The TRPV1/CHO cell line was generated as described below. […] The resulting PCR products were purified from agarose gels using Gel Band Purification Kit (GE Healthcare Bioscience) and were subcloned into pCR-Blunt vector (Invitrogen). The cloned cDNA was fully sequenced using a fluorescent dye-terminator reagent (BigDye Terminator ver3.1 Cycle Sequencing Kit, Applied Biosystems) and ABI Prism 3100 genetic analyzer (Applied Biosystems). The pCR-Blunt vector containing the hTRPV1 cDNA was subjected to restriction digestion with EcoR1. The restriction fragment was subcloned into expression vector pcDNA3.1(-) (Invitrogen) and named pcDNA3.1(-)-hVR1 plasmid. The sequence of the cDNA encoding TRPV1 is available at GenBank accession number AJ277028. […] The cells were transfected with the pcDNA3.1(-)-hVR1 plasmid using FuGENE6 (Roche) according to the manufacturer's protocol. 24 hr after transfection, neomycin-resistant cells were selected using 1 mg/mL G418 (Nacalai Tesque). […] The cells expressing hTRPV1 were cultured in the growth medium supplemented with 1 mg/mL G418. […] Capsaicin-based Assay: […] Subsequently, the cells were loaded by incubation in 0.1 mL of wash buffer containing Fluo-4 at 3 μM final concentration. After 1 hour, the cells were washed twice with 0.2 mL wash buffer and resuspended in 0.1 mL wash buffer. The plates were then transferred to a Fluorescence Imaging Plate Reader (Molecular Devices). Fluorescence intensity was monitored for 15 seconds to establish a baseline. […] The final concentration of the compound was adjusted to range from 100 μM to 1.5625 μM. […] Data were collected over the entire time course and analyzed using Excel and the curve-fitting formula GraphPad Prism.
# T1 sequence (Q8NER1 whole entry, looked up): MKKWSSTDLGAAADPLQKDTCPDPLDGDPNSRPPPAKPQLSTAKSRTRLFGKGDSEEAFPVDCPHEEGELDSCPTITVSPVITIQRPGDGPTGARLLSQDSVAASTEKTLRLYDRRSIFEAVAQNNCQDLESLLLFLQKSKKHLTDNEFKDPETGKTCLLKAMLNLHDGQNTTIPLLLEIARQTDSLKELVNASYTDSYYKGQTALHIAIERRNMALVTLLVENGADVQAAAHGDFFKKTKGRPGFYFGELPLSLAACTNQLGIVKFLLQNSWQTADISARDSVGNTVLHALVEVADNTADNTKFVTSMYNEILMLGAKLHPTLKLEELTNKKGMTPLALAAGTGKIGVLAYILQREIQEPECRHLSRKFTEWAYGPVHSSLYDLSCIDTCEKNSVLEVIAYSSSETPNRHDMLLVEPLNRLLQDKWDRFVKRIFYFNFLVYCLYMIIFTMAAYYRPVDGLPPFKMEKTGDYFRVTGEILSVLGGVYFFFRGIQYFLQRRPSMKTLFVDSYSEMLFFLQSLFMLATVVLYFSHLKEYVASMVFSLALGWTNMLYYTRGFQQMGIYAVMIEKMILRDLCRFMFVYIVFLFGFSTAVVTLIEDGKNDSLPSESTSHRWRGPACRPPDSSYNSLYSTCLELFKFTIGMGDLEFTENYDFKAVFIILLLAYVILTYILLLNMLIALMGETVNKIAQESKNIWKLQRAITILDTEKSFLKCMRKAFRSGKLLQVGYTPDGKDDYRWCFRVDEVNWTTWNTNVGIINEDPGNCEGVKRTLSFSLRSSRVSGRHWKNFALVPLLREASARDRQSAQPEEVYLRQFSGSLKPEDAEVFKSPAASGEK
IC50 [1] [nM],IC50 [2] [nM],Structure (SMILES)
670 ± 94,444 ± 79,"C[C@@H]1CN(C(=O)Nc2nc3ccccc3s2)CCN1c1ncc([C@H](O)CO)cc1F [A122(b), (R)—N-(benzo[d]thiazol-2-yl)-4-(5-((S)-1,2-dihydroxyethyl)-3-fluoropyridin-2-yl)-3-methylpiperazine-1-carboxamide]"
171 ± 29,146 ± 52,"C[C@@H]1CN(C(=O)Nc2nc3cc(F)c(F)cc3s2)CCN1c1ncc([C@@H](O)[C@@H](C)O)cc1F [B158(o), (R)—N-(5,6-difluorobenzo[d]thiazol-2-yl)-4-{5-[(1R,2R)-1,2-dihydroxypropyl]-3-fluoropyridin-2-yl}-3-methylpiperazine-1-carboxamide]"
1020,506 ± 155,"C[C@@H](O)[C@H](O)c1cnc(N2CCN(C(=O)Nc3nc4ccccc4s3)C[C@@H]2C)c(F)c1 [B122(p), (S)—N-(benzo[d]thiazol-2-yl)-4-{5-[(1R,2R)-1,2-dihydroxypropyl]-3-fluoropyridin-2-yl}-3-methylpiperazine-1-carboxamide]"
303,194 ± 49,"C[C@H](O)[C@@H](O)c1cnc(N2CCN(C(=O)Nc3nc4ccc(F)cc4s3)C[C@H]2C)c(F)c1 [B125(j), (R)-4-{5-[(1S,2S)-1,2-dihydroxypropyl]-3-fluoropyridin-2-yl}-N-(6-fluorobenzo[d]thiazol-2-yl)-3-methylpiperazine-1-carboxamide]"
211 ± 50,171 ± 1,"C[C@@H](O)[C@H](O)c1cnc(N2CCN(C(=O)Nc3nc4ccc(F)cc4s3)C[C@@H]2C)c(F)c1 [B125(p), (S)-4-Z{5-[(1R,2R)-1,2-dihydroxypropyl]-3-fluoropyridin-2-yl}-N-(5-fluorobenzo[d]thiazol-2-yl)-3-methylpiperazine-1-carboxamide]"
0.4,11.5 ± 1.4,"C[C@@H]1CN(c2ncc([C@@H](O)CO)cc2F)CCN1C(=O)Nc1nc2ccc(Cl)cc2s1 [A123(e), (R)—N-(6-chlorobenzo[d]thiazol-2-yl)-4-(5-((R)-1,2-dihydroxyethyl)-3-fluoropyridin-2-yl)-2-methylpiperazine-1-carboxamide]"
0.4,18.2 ± 2.9,"Cc1ccc2nc(NC(=O)N3CCN(c4ncc([C@@H](O)CO)cc4F)C[C@H]3C)sc2c1 [A126(e), (R)-4-(5-((R)-1,2-dihydroxyethyl)-3-fluoropyridin-2-yl)-2-methyl-N-(6-methylbenzo[d]thiazol-2-yl)piperazine-1-carboxamide]"
134 ± 16,216 ± 57,"C[C@@H]1CN(C(=O)Nc2nc3cc(F)ccc3s2)CCN1c1ncc([C@H](O)CO)cc1F [A155(b), (R)-4-{5-[(S)-1,2-dihydroxyethyl]-3-fluoropyridin-2-yl}-N-(5-fluorobenzo[d]thiazol-2-yl)-3-methylpiperazine-1-carboxamide]"
